Where two headings read alike, the source gives them in different places.
Legend:
CDC25A = biological target: T1, CDC25A (Homo sapiens, UniProt P30304); assay: Enzymatic assay (OMFP substrate) on recombinant CDC25A; assay type: biochemical; settings: for remaining activity at 20 µM: compound 20 µM, relative to DMSO control; for IC50: dose-response on recombinant CDC25A
T1 construct: GST (pGEX vector) (N); made in house; host or cells: E. coli BL21
T1 sequence (P30304 1-524): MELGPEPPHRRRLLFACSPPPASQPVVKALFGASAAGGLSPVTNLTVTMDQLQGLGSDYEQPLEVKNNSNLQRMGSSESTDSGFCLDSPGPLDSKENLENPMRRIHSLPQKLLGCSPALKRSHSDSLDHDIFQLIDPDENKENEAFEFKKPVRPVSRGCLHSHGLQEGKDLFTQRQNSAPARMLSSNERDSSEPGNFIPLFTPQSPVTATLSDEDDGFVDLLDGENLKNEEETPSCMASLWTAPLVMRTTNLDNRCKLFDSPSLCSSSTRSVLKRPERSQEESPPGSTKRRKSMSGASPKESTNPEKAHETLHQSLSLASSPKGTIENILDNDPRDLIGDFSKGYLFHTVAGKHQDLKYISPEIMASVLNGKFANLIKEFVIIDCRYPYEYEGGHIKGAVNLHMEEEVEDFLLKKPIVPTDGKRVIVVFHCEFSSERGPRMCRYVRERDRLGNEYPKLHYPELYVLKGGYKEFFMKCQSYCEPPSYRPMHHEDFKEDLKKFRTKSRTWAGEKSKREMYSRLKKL
Protocol: 57 UPD compounds were dissolved in DMSO at 10 mM stock concentration and stored in
60 Expression and purification of CDC25 phosphatases - CDC25A (kind gift of I.
61 Hoffmann, Heidelberg, Germany), CDC25B and CDC25C (kind gift of B. Gabrielli,
62 Queensland, Australia) in pGEX were expressed in E. coli BL21 cells and purified on 1
63 ml Glutathione Sepharose 4 Fast Flow columns as described 1.
65 Enzymatic assays - CDC25A, CDC25B and CDC25C were appropriately diluted in 10
66 mM Tris-HCl pH 8.0, 50 mM NaCl and assayed in 20 mM Tris-HCl pH 8.0, 75 mM
67 NaCl, 0.5 mM EGTA, 1 mM DTT, 0.1 mg/ml BSA and defined concentrations of
68 compounds. Reactions were started by addition of the substrate OMFP (0.1 mM). Assays
69 were carried out at room temperature in duplicate or triplicate using transparent-bottom,
70 V-shaped 96 well plates and read at defined intervals on a Molecular Devices
71 SpectraMax microplate reader (ex: 490 nm / em: 525 nm). IC50 and kinetic parameters
72 calculated from Lineweaver-Burk double-reciprocal plots of the data were obtained using
73 GraphPad Prism software. […]

HeLa cells = assay: Flow cytometric analysis of cell cycle progression (DNA content) in HeLa cells; assay type: cell-based; settings: for effect on the G2/M transition: double-thymidine synchronized HeLa, 10 μM added 5 h upon release, analysed 12 h post-release; for progression through S-phase: HeLa, 10 µM added at release from double-thymidine block (early S-phase); for effect on cell cycle distribution (DNA content): asynchronous HeLa cells, 10 μM, 15 h
Protocol: Reactions were started by addition of the substrate OMFP (0.1 mM). Assays 69 were carried out at room temperature in duplicate or triplicate using transparent-bottom, 70 V-shaped 96 well plates and read at defined intervals on a Molecular Devices 71 SpectraMax microplate reader (ex: 490 nm / em: 525 nm). IC50 and kinetic parameters 72 calculated from Lineweaver-Burk double-reciprocal plots of the data were obtained using 73 GraphPad Prism software. 74 75 Cell culture - Wild-type HeLa and Kyoto HeLa cells stably expressing mCherry-H2B 76 were maintained in DMEM+L-Glutamine (Gibco, Life Technologies, USA) 77 supplemented with 5% fetal calf serum (FCS) (Gibco) and penicillin-streptomycin (100 […] A549 and Colo741 were grown and maintained like HeLa 79 cells but with 10% FCS. HCT116 were maintained in McCoy's medium supplemented 80 with 10% FCS and penicillin-streptomycin. U2OS-Tet-OFF cells expressing HA-CDC25 81 were grown and maintained in DMEM+L-Glutamine, 10% Tet-free FCS and penicillin- 82 streptomycin in the presence or the absence of 4 μg/ml tetracycline (Sigma, T7660). 83 84 Cell synchronization - Cell synchronization was performed by double thymidine block- 85 release protocol 2 or nocodazole treatment 3 and verified by flow cytometry. 86 87 Cell viability assays - Compounds viability upon 48h treatment with the compounds was 88 assessed as described 4. Data were plotted with Prism 7® and analyzed by non-linear 89 regression. Comparison of single curve fitting to all data set within an experiment was 90 performed with the extra sum-of-squares F-test to determine P values. 91 92 Western blotting - Cell lysis and immunoblot analysis were performed as previously 93 described 5. […] Cells were washed with PBS, resuspended […] To 100 quantify phosphorylation of CDK1 at Tyr15 and H2AX at S139, cells were harvested and 101 examined as described 6. Samples were measured on an AttuneTM NxT Cytometer 102 (ThermoFisher Scientific, Carlsbad, CA, USA) and data were analyzed with FlowJo® 103 software v10 (FlowJo, LLC, Ashland, OR, USA). 104 105 Real Time qRT-PCR - Organoids were lysed in Tri-Reagent (Sigma) as previously 106 described 7 and total RNA was isolated as described by manufacturer's instructions. For […] 108 High Fidelity cDNA Synthesis kit (Roche). Real-time quantitative PCR reactions were 109 performed in three independent biological replicates, each with technical triplicate, using 110 the Applied Biosystems SYBR Green Kit and monitored by the ABI Prism 7900HT 111 system (Applied Biosystem). The following primers were used: 112 Lgr5: Forward [NT] and Reverse 5'- […] 114 Lysozyme: Forward [NT] and Reverse 5'- 115 [NT]3' 116 Cryptdin: Forward [NT] and Reverse 5'- 117 [NT]-binding protein (TBP): Forward [NT] and 119 Reverse [NT] 120 […] 122 amplification curves and the melting temperature analysis of the final amplification […] 4

HCT116 tumors = assay: HCT116 tumor xenograft in zebrafish embryos; assay type: in vivo; settings: for primary tumor size at day 3 relative to day 0: 10 µM in water, three days (day 2 to day 5); for metastasis (tumor cells in caudal hematopoietic plexus): 10 µM, 3 dpi
Protocol: (§1) Implantation of HCT116 cells into zebrafish embryos were carried out essentially as previously described. Briefly, HCT116 cells were cultured in McCoy’s medium supplemented with 10% FCS and penicillin/streptomycin until ~80% confluence, then labeled for 30 min at 37 °C in 6 μg/mL 1,1′-dioctadecyl-3,3,3′,3′-tetramethylindocarbocyanine perchlorate (DiI, Sigma) in PBS followed by washing 3x in PBS. Labeled cells were implanted in the perivitelline space of 48 hours post-fertilization (hpf) wildtype (AB) zebrafish embryos, kept from the 1-cell stage in 1-phenyl-2-thiourea (PTU)-containing E3-water. […] As control, embryos were incubated in PTU-E3 with 0.1% DMSO (vehicle). Tumor-bearing embryos were incubated at 36 °C for three days and the change in tumor volume was evaluated as the size of the tumors at three days post-implantation (3 dpi) relative to the size immediately after implantation (0 dpi). Metastasis was evaluated at 3 dpi as the number of tumor cells present in the caudal hematopoietic plexus, the main metastatic site for tumors implanted in the perivitelline space.

zebrafish embryos = assay type: in vivo; settings: 10 µM (effective dose)
Protocol: as §1

[1] = read-out: % remaining activity ± SD (Table S1, first round of selection)

Structure (SMILES)	remaining activity at 20 µM (CDC25A; [1])	IC50 (CDC25A)	effect on the G2/M transition (HeLa cells)	primary tumor size at day 3 relative to day 0 (HCT116 tumors)	metastasis (tumor cells in caudal hematopoietic plexus) (HCT116 tumors)	tolerability / overt toxicity (zebrafish embryos)	effect on the G1/S transition (HeLa cells; HeLa synchronized at G2/M, 10 μM added in mid-G1, analysed 12 h post-release)	progression through S-phase (HeLa cells)	effect on cell cycle distribution (DNA content) (HeLa cells)	remaining activity at 20 µM (CDC25A; read-out: % remaining activity ± SD (Table S2, second round of selection))	mechanism of enzyme inhibition (CDC25A; kinetic analysis, mixed-model inhibition equation)	Ki (CDC25A; mixed-model inhibition equation)
O=C1C=C(c2ccc(O)cc2O)C(=O)c2c(O)cccc21 [UPD-140, 2-(2′,4′-dihydroxyphenyl)-8-hydroxy-1,4-naphthoquinone]	0.1 ± 0.1%	1.42 µM	accretion of the G2/M peak	reduced to approximately half the size of the initial volume	reduction in metastasis achieved borderline significance	well tolerated	–	–	–	–	–	–
O=C1C(c2ccc(O)cc2O)=CC(=O)c2c(O)cccc21 [UPD-176, 5-hydroxy-2-(2,4-dihydroxyphenyl)naphthalene-1,4-dione]	0%	–	accretion of the G2/M peak	tendency towards tumor regression, although not significant	did not appear to be significant	well tolerated	effectively blocked cells in G1	progression through S-phase was effectively held in check	accumulation of cells at G2/M	–	–	–
COc1cccc(SC2=CC(=O)c3cccc(O)c3C2=O)c1 [UPD-795, 2-(3-methoxyphenylthio)-8-hydroxynaphthalene-1,4-dione]	–	1.25 µM	–	–	–	–	–	progression through S-phase was effectively held in check	increase of the G1 population	0%	mixed mechanism of enzyme inhibition	1.18 ± 0.4 µM

— paper PMC6362118, “Pharmacophore-guided discovery of CDC25 inhibitors causing cell cycle arrest and tumor regression” (Scientific Reports, 2019)
